Measured values as given in US10544146B2, “Bicyclic compounds and their use as antibacterial agents and β-lactamase inhibitors” (priority 2011, dated 2020).
One block for each molecule: values may come before it.

Columns and labels:
Assay type in all cases: cell-based
K. pneumo JMI 4088 = test: MIC, antibacterial and synergistic activity; details: substance alone
K. pneumo JMI 4106 = test: MIC, antibacterial and synergistic activity; details: substance alone
E. coli JMI 11103 = test: MIC, antibacterial and synergistic activity; details: substance alone
E. coli JMI 10770 = test: MIC, antibacterial and synergistic activity; details: E. coli JMI 10770, CTX-M15 (Hyper ESBL); substance alone
P. aerug JMI 2686 = test: MIC, antibacterial and synergistic activity; details: substance alone
E. coli JMI 10767 = test: MIC, antibacterial and synergistic activity; details: E. coli JMI 10767, Wt; substance alone
Experimental: (§1) In the Tables 10-12, compounds of the present invention were tested in combination with various antibiotics against metallo β-lactamase producing bacteria.

K. pneumo JMI 2693 = test: MIC, antibacterial and synergistic activity; details: K. pneumo JMI 2693, NDM-1 (Cpase); substance alone
Experimental: as §1

E. coli JMI 2692 = test: MIC, antibacterial and synergistic activity; details: Escherichia coli, JMI2692; E. coli JMI 2692, NDM-1, TEM-1, CTX-M-15; substance alone
Experimental: as §1

A. baumanii JMI 2659 = test: MIC, antibacterial and synergistic activity; details: Acinetobacter baumannii, JMI2659, substance alone
Experimental: as §1

K. pneumo JMI 2697 = test: MIC, antibacterial and synergistic activity; details: K. pneumo JMI 2697, IMP-4 (Cpase); substance alone
Experimental: as §1

E. coli ATCC 25922 = test: MIC, antibacterial and synergistic activity; details: Escherichia coli, ATCC25922, E. coli ATCC 25922, enzyme Wt; substance alone
Experimental: as §1

P. aerug JMI 149 = test: MIC, antibacterial and synergistic activity; details: substance alone
Experimental: as §1

K. pneumo JMI 2674 = test: MIC, antibacterial and synergistic activity; details: K. pneumo JMI 2674, CTX-M15 (ESBL); substance alone
E. coli JMI 4080 = test: MIC, antibacterial and synergistic activity; details: Escherichia coli, JMI4080, E. coli JMI 4080, Tem-10; substance alone
[1] = system: metallo β-lactamase producing bacteria; test: MIC in combination with various antibiotics against metallo β-lactamase producing bacteria (Tables 10-12); details: substance alone
Experimental: as §1

K. pneumo JMI 2681 = test: MIC, antibacterial and synergistic activity; details: substance alone
E. coli JMI 4103 = test: MIC, antibacterial and synergistic activity; details: Escherichia coli, JMI4103; E. coli JMI 4103, KPC-2, Tem-1, CMY-Type; substance alone
E. coli JMI 10768 = test: MIC, antibacterial and synergistic activity; details: E. coli JMI 10768, CTX-M15 (Weak ESBL); substance alone
[2] = K. pneumo JMI 4088, KPC-3 (Cpase)
[3] = K. pneumo JMI 4106, KPC-3, TEM-1, SHV-12, SHV-141
[4] = P. aerug JMI 2686, KPC-2 (Cpase)
[5] = Enterobacter cloacae, Enterobacter cloacae isolate 25, IMP-4
[6] = Enterobacter cloacae, Enterobacter cloacae isolate 1280, VIM-5
[7] = Enterobacter cloacae, Enterobacter cloacae isolate 1471, VIM-1
[8] = Enterobacter cloacae, Enterobacter cloacae isolate 1874, IMP-21
[9] = Enterobacter cloacae, Enterobacter cloacae isolate 3686, IMP-1
[10] = Escherichia coli, Escherichia coli isolate 13, IMP-1
[11] = Klebsiella aerogenes, Enterobacter aerogenes isolate 47683, VIM-12
[12] = Klebsiella oxytoca, Klebsiella oxytoca isolate 31141, VIM-23
[13] = Klebsiella pneumoniae, Klebsiella pneumoniae isolate 38, NDM-1
[14] = Providencia stuartii, Providencia stuartii isolate 26582, VIM-1
[15] = Citrobacter freundii, Citrobacter freundii isolate 49469, NDM-1
[16] = Enterobacter cloacae, Enterobacter cloacae isolate 4, VIM-6
[17] = Enterobacter cloacae, Enterobacter cloacae isolate 10, IMP-26
[18] = Enterobacter cloacae, Enterobacter cloacae isolate 1068, VIM-2
[19] = Enterobacter cloacae, Enterobacter cloacae isolate 53477, NDM-1
[20] = Escherichia coli, Escherichia coli isolate 17, NDM-1
[21] = Escherichia coli, Escherichia coli isolate 49, NDM-1
[22] = Escherichia coli, Escherichia coli isolate 53749, NDM-1
[23] = Klebsiella aerogenes, Enterobacter aerogenes isolate 8397, VIM-1
[24] = Klebsiella oxytoca, Klebsiella oxytoca isolate 24825, IMP-26
[25] = Klebsiella pneumoniae, Klebsiella pneumoniae isolate 16, VIM-5
[26] = Serratia marcescens, Serratia marcescens isolate 35, IMP-4
[27] = Serratia marcescens, Serratia marcescens isolate 36098, IMP-19

Compound: C[C@H]1[C@H](NC(=O)/C(=N\OC(C)(C)C(=O)O)c2csc(N)n2)C(=O)N1S(=O)(=O)O [Aztreonam, aztreonam]
MIC (K. pneumo JMI 4088; [2]): > 512 µg/mL | MIC alone (K. pneumo JMI 4088; [2]): 512 µg/mL | MIC alone (K. pneumo JMI 4088; K. pneumo JMI 4088, enzyme KPC-3 (Cpase)): 512 µg/mL | MIC (K. pneumo JMI 4106; [3]): > 512 µg/mL | MIC alone (K. pneumo JMI 4106; [3]): 512 µg/mL | MIC alone (K. pneumo JMI 4106; K. pneumo JMI 4106, enzyme KPC-3, TEM-1, SHV-12, SHV-141): 512 µg/mL | MIC alone (E. coli JMI 11103; E. coli JMI 11103, CTX-M15 (Intermediate ESBL)): 16 µg/mL | MIC (E. coli JMI 11103; Escherichia coli, JMI11103, E. coli JMI 11103, CTX-M15 (Intermediate ESBL)): 32 µg/mL | MIC alone (E. coli JMI 10770): 64 µg/mL | MIC (P. aerug JMI 2686; [4]): 512 µg/mL | MIC alone (P. aerug JMI 2686; [4]): >512 µg/mL | MIC (P. aerug JMI 2686; P. aerug JMI 2686, enzyme KPC-2 (Cpase)): 512 µg/mL | MIC alone (E. coli JMI 10767): ≤1 µg/mL | MIC (K. pneumo JMI 2693): > 512 µg/mL | MIC (E. coli JMI 2692): > 512 µg/mL | MIC (A. baumanii JMI 2659; A. baumanii JMI 2659, Ges-14 (Cpase)): 512 µg/mL | MIC (A. baumanii JMI 2659; A. baumanii JMI 2659, enzyme Ges-14 (Cpase)): 512 µg/mL | MIC (K. pneumo JMI 2697): > 512 µg/mL | MIC (E. coli ATCC 25922): 0.25 µg/mL | MIC alone (P. aerug JMI 149; P. aerug JMI 149, Bla+++D+): 512 µg/mL | MIC (P. aerug JMI 149; P. aerug JMI 149, enzyme Bla+++D+): 512 µg/mL | MIC alone (K. pneumo JMI 2674): 32 µg/mL | MIC (E. coli JMI 4080): 64 µg/mL | MIC [1, 5]: 64 µg/mL | MIC [1, 6]: 8 µg/mL | MIC [1, 7]: 64 µg/mL | MIC [1, 8]: ≤ 0.12 µg/mL | MIC [1, 9]: 32 µg/mL | MIC [1, 10]: 16 µg/mL | MIC [1, 11]: 4 µg/mL | MIC [1, 12]: 8 µg/mL | MIC [1, 13]: 64 µg/mL | MIC [1, 14]: 32 µg/mL | MIC (K. pneumo JMI 2681; K. pneumo JMI 2681, Oxa-48 (Cpase)): 512 µg/mL | MIC (K. pneumo JMI 2681; K. pneumo JMI 2681, enzyme Oxa-48 (Cpase)): 512 µg/mL | MIC (E. coli JMI 4103): > 512 µg/mL | MIC alone (E. coli JMI 10768): 8 µg/mL

MIC [1, 15]: > 64 µg/mL | MIC [1, 16]: 64 µg/mL | MIC [1, 17]: 64 µg/mL | MIC [1, 5]: 8 µg/mL | MIC [1, 18]: 8 µg/mL | MIC [1, 6]: 4 µg/mL | MIC [1, 7]: 4 µg/mL | MIC [1, 8]: 4 µg/mL | MIC [1, 9]: 4 µg/mL | MIC [1, 19]: 4 µg/mL | MIC [1, 10]: 16 µg/mL | MIC [1, 20]: 4 µg/mL | MIC [1, 21]: 4 µg/mL | MIC [1, 22]: 4 µg/mL | MIC [1, 23]: > 64 µg/mL | MIC [1, 11]: > 64 µg/mL | MIC [1, 24]: > 64 µg/mL | MIC [1, 12]: > 64 µg/mL | MIC [1, 25]: > 64 µg/mL | MIC [1, 13]: > 64 µg/mL | MIC [1, 14]: > 64 µg/mL | MIC [1, 26]: > 64 µg/mL | MIC [1, 27]: > 64 µg/mL
Compound: O=C(NO[C@H]1CCNC1)[C@@H]1CC[C@@H]2CN1C(=O)N2OS(=O)(=O)O [Ex. 2, (2S,5R)-7-Oxo-N-[(3S)-pyrrolidin-3-yloxy]-6-(sulfooxy)-1,6-diazabicyclo[3.2.1]octane-2-carboxamide]

MIC [1, 15]: > 64 µg/mL | MIC [1, 16]: 64 µg/mL | MIC [1, 17]: 64 µg/mL | MIC [1, 5]: 4 µg/mL | MIC [1, 18]: 4 µg/mL | MIC [1, 6]: 4 µg/mL | MIC [1, 7]: 4 µg/mL | MIC [1, 8]: 2 µg/mL | MIC [1, 9]: 4 µg/mL | MIC [1, 19]: 8 µg/mL | MIC [1, 10]: 2 µg/mL | MIC [1, 20]: 2 µg/mL | MIC [1, 21]: 2 µg/mL | MIC [1, 22]: 2 µg/mL | MIC [1, 23]: > 64 µg/mL | MIC [1, 11]: > 64 µg/mL | MIC [1, 24]: > 64 µg/mL | MIC [1, 12]: > 64 µg/mL | MIC [1, 25]: > 64 µg/mL | MIC [1, 13]: > 64 µg/mL | MIC [1, 14]: > 64 µg/mL | MIC [1, 26]: > 64 µg/mL | MIC [1, 27]: > 64 µg/mL
Compound: O=C(NO[C@H]1CCCNC1)[C@@H]1CC[C@@H]2CN1C(=O)N2OS(=O)(=O)O [Ex. 4, (2S,5R)-7-Oxo-N-[(3S)-piperidin-3-yloxy]-6-(sulfooxy)-1,6-diazabicyclo[3.2.1]octane-2-carboxamide]

MIC [1, 15]: > 64 µg/mL | MIC [1, 16]: 61 µg/mL | MIC [1, 17]: 61 µg/mL | MIC [1, 5]: 4 µg/mL | MIC [1, 18]: 4 µg/mL | MIC [1, 6]: 4 µg/mL | MIC [1, 7]: 2 µg/mL | MIC [1, 8]: 2 µg/mL | MIC [1, 9]: 2 µg/mL | MIC [1, 19]: 2 µg/mL | MIC [1, 10]: 1 µg/mL | MIC [1, 20]: 2 µg/mL | MIC [1, 21]: 2 µg/mL | MIC [1, 22]: 2 µg/mL | MIC [1, 23]: > 64 µg/mL | MIC [1, 11]: > 64 µg/mL | MIC [1, 24]: > 64 µg/mL | MIC [1, 12]: > 64 µg/mL | MIC [1, 25]: > 64 µg/mL | MIC [1, 13]: > 64 µg/mL | MIC [1, 14]: > 64 µg/mL | MIC [1, 26]: > 64 µg/mL | MIC [1, 27]: > 64 µg/mL
Compound: CC(=O)NNC(=O)[C@@H]1CC[C@@H]2CN1C(=O)N2OS(=O)(=O)O [Ex. 40, (2S,5R)-N′-acetyl-7-oxo-6-(sulfooxy)-1,6-diazabicyclo[3.2.1]octane-2-carbohydrazide]
